Common to all, as to experiment: NCI-60 cell line screen, 48 h
Assay [1] has as its system SF-539.
For assay [2], the system named is HCT-116.
Assay [3] relates to HT-29.
For assay [4], the system named is SK-MEL-2.
In assay [5] the test system is SNB-75.
Assay [6] relates to NCI-H23.
Assay [7] relates to KM12.
The subject of assay [8] is HOP-92.
The subject of assay [9] is EKVX.
Assay [10] relates to 786-0.
Assay [11] has as its system NCI-H460.
Assay [12] concerns M14.
For assay [13], the system named is HOP-62.
The test system of assay [14] is SW-620.
Assay [15] relates to RXF 393.

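Compound exposure: 48 hours, 5 concentrations, 96-well plates. The concentration for 50% growth inhibition is given as GI50.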 Calls of active or inactive are those of the source. Rule as the data show it: active = GI50 up to about 1.1 µM and inactive = higher.

As for `O=C(NC12CC3CC(CC(C3)C1)C2)C(=O)c1c[nH]c2ccc(Cl)cc12`, the GI50 in assay [1] is 16.5 µM (inactive); in [2] it was 30.1 µM (inactive); in assay [3], 3.97 µM (inactive); in [4], 26.7 µM (inactive); in assay [5] it was 20.9 µM (inactive); in assay [6], > 100 µM (inactive). Further, the GI50 in assay [7] is 35.6 µM (inactive); in assay [8], 22.9 µM (inactive); in [9], > 100 µM (inactive); in [10] it was 6.24 µM (inactive); in assay [11], 22.2 µM (inactive); in assay [12], 20 µM (inactive). Moreover, the GI50 in assay [13] was 7.13 µM (inactive).
Regarding `CCOC(=O)C(Oc1ccc(OC)c2c1C(=O)CCC2)c1ccccc1` (stereo not given), the GI50 in assay [1] was > 100 µM (inactive); in [2], 84.7 µM (inactive); in assay [3], 53.1 µM (inactive); in assay [4], > 100 µM (inactive); in assay [14], > 100 µM (inactive); in assay [6], 25.5 µM (inactive). Besides, the GI50 in assay [7] is > 100 µM (inactive); in assay [9], 50.2 µM (inactive); in assay [10], > 100 µM (inactive); in [11] it was > 100 µM (inactive); in [12] it was > 100 µM (inactive); in assay [13], > 100 µM (inactive).
On to `C=CCC1=C2CCCCC2CCC1=O` (stereo not given), for which the GI50 in assay [1], in assay [2], in [15], in assay [4], in [5] and in assay [14] was > 100 µM (inactive) each time. For the same compound, the GI50 in assay [6], in assay [7], in assay [9], in assay [10], in assay [11] and in assay [12] was > 100 µM (inactive) throughout. The GI50 in assay [13] was > 100 µM (inactive).
For the compound `CN1N=C2c3ccccc3OC(c3ccccc3)[C@H]2C1c1ccccc1` (stereo not given in full), the GI50 in [1] was > 100 µM (inactive); in assay [2] it was 29.7 µM (inactive); in [15] it was 28.2 µM (inactive); in [3] it was 42.1 µM (inactive); in assay [4], > 100 µM (inactive); in assay [14], > 100 µM (inactive). Besides, the GI50 is 79.4 µM (inactive) in [6]; > 100 µM (inactive) in assay [7]; 32.7 µM (inactive) in assay [8]; > 100 µM (inactive) in assay [9]; > 100 µM (inactive) in assay [10]; 97.1 µM (inactive) in assay [11]. The results for the GI50 in assay [12] and in assay [13] were > 100 µM (inactive) and 95.5 µM (inactive), respectively.
In the case of `CCN(CC)CCCNc1nccc2c(C)c3c(cc12)c1cnccc1n3C`, the GI50 in [1] was 0.0173 µM (active); in assay [2] it was 0.0564 µM (active); in [3], 0.0101 µM (active); in [5] it was 0.427 µM (active); in assay [14], 0.0233 µM (active); in assay [6], 0.179 µM (active). Besides, the GI50 in assay [9] was 0.294 µM (active); in assay [10] it was 0.0927 µM (active); in assay [11], 0.0111 µM (active); in [12], 0.26 µM (active); in assay [13], 0.116 µM (active).
For the compound `O=C(O)CN(c1ccccc1)S(=O)(=O)c1ccc([N+](=O)[O-])cc1`, the GI50 in [1], in assay [15], in assay [3], in assay [4], in [14] and in [6] was > 100 µM (inactive) in each case. Moreover, the GI50 in assay [7], in [8], in assay [9], in [10], in assay [11] and in assay [12] was > 100 µM (inactive) in each case.
Turning to `CS(=O)(=O)OCCN1CCN(C(=O)c2cccc3c(Nc4ccc(S(=O)(=O)N=C(N)N)cc4)c4ccccc4nc23)CC1`, the GI50 in [1] was > 100 µM (inactive); in [2] it was > 100 µM (inactive); in assay [15], > 100 µM (inactive); in assay [3] it was > 100 µM (inactive); in assay [4], > 10 µM (inactive); in [5] it was > 100 µM (inactive). Besides, the GI50 in assay [6], in [7], in [8], in assay [10], in assay [11] and in [12] was > 100 µM (inactive) throughout. Moreover, the GI50 in assay [13] is > 100 µM (inactive).
On to `O=C(CC1(O)C(=O)Nc2c(Cl)ccc(Cl)c21)c1ccc2ccccc2c1` (stereo not given), for which the GI50 was 13.5 µM (inactive) in assay [1]; 11.7 µM (inactive) in assay [2]; 11.6 µM (inactive) in assay [15]; 2.43 µM (inactive) in assay [3]; 11.6 µM (inactive) in assay [4]; 14.2 µM (inactive) in assay [5]. The GI50 in assay [14] is 3.36 µM (inactive); in assay [6] it was 10.4 µM (inactive); in assay [7], 4.69 µM (inactive); in assay [9], 15.8 µM (inactive); in assay [10], 6.25 µM (inactive); in assay [11], 9.2 µM (inactive). The figures for the GI50 in assay [12] and in assay [13] were 8.85 µM (inactive) and 29 µM (inactive), respectively.
Regarding `Cc1ccc(S(=O)(=O)N/N=C(\c2nc3ccc([N+](=O)[O-])cc3[nH]c2=O)C(O)c2ccc([N+](=O)[O-])cc2)cc1` (stereo not given), the GI50 in assay [1], in assay [15], in [4], in assay [5], in [14] and in [6] was > 100 µM (inactive) each time. In addition, the GI50 in [8] was > 100 µM (inactive); in assay [9] it was > 100 µM (inactive); in assay [10], > 100 µM (inactive); in assay [11] it was 55.2 µM (inactive); in assay [12], > 100 µM (inactive); in [13], 51.2 µM (inactive).
Consider `O=C1CNC(=O)c2[nH]cnc2N1`, for which the GI50 in assay [1], in [15], in [3], in assay [5], in assay [14] and in assay [6] was > 100 µM (inactive) in each case. Further, the GI50 in [7], in assay [9], in [10], in assay [11] and in [12] was > 100 µM (inactive) in each case.
For the compound `C=C(C)C1CC=C(C)C(O)([C@@]2(O)C[C@H](C(=C)C)CC=C2C)C1` (stereo not given in full), the GI50 in assay [1] was 19.8 µM (inactive); in [2], 17.6 µM (inactive); in assay [15] it was 13.7 µM (inactive); in assay [3] it was 17.3 µM (inactive); in assay [4], 17.4 µM (inactive); in assay [5] it was 15.4 µM (inactive). Further, the GI50 is 26.7 µM (inactive) in assay [14]; 17.3 µM (inactive) in assay [6]; 19.3 µM (inactive) in assay [7]; 12.9 µM (inactive) in assay [8]; 16.8 µM (inactive) in assay [10]; 18 µM (inactive) in assay [11]. Besides, the values for the GI50 in assay [12] and in assay [13] were 16.4 µM (inactive) and 16.9 µM (inactive), respectively.
Take `CCOc1ccccc1N1C(=O)C(=O)C(c2nc3ccccc3o2)C(=O)C1=O`: the GI50 was > 100 µM (inactive) in assay [1]; 70.5 µM (inactive) in assay [2]; > 100 µM (inactive) in assay [3]; > 100 µM (inactive) in [4]; 42.6 µM (inactive) in [5]; > 100 µM (inactive) in assay [14]. Moreover, the GI50 in assay [6] was > 100 µM (inactive); in assay [8], > 100 µM (inactive); in assay [9], 71.9 µM (inactive); in assay [10] it was 21.2 µM (inactive); in [12], > 100 µM (inactive); in [13], > 100 µM (inactive).
For `CN1C(c2ccccc2)CS(=O)(=O)CS1(=O)=O` (stereo not given), the GI50 in assay [1], in assay [2], in assay [15], in assay [3], in assay [4] and in assay [5] was > 100 µM (inactive) throughout. The GI50 in assay [14], in assay [6], in assay [7], in assay [9], in assay [10] and in [11] was > 100 µM (inactive) each time. Also, the GI50 in [12] and in [13] was > 100 µM (inactive) each time.
On to `FC(F)(F)c1ccc2nc(Nc3ccc(Cl)c(Cl)c3)c(-c3ccccc3)nc2c1`, for which the GI50 was 19.4 µM (inactive) in assay [1]; 7.66 µM (inactive) in [2]; 39.1 µM (inactive) in [15]; 26 µM (inactive) in [3]; > 100 µM (inactive) in assay [4]; 33.4 µM (inactive) in [14]. Moreover, the GI50 in [6] was > 100 µM (inactive); in assay [8], 46.7 µM (inactive); in assay [9], > 100 µM (inactive); in assay [10], 12.1 µM (inactive); in assay [11], 7.05 µM (inactive); in assay [13], > 100 µM (inactive).
As for `Clc1cc(Cl)cc(Nc2nc3ccccc3nc2-c2cccs2)c1`, the GI50 in assay [1] is 36.1 µM (inactive); in assay [2], 18.5 µM (inactive); in assay [15], 17.1 µM (inactive); in [3] it was 14 µM (inactive); in [4] it was > 100 µM (inactive); in [5], 32.4 µM (inactive). Further, the GI50 was > 100 µM (inactive) in [14]; 28.8 µM (inactive) in assay [6]; 12.4 µM (inactive) in [8]; 41.3 µM (inactive) in [9]; 17.9 µM (inactive) in assay [10]; 14.3 µM (inactive) in assay [11]. Moreover, the GI50 in assay [13] is 40.4 µM (inactive).

Values taken from ChEMBL document CHEMBL1201862, “PubChem BioAssay data set” (2004).
